ChEMBL document CHEMBL1671626, “In vitro profiling of ceftaroline against a collection of recent bacterial clinical isolates from across the United States” (2008)
Converted amounts (≈) assume the structure as drawn.

Legend:
Format in all cases: functional
Staphylococcus aureus [1] = assay: Antibacterial activity against methicillin-resistant Staphylococcus aureus by CLSI M7-A7 broth microdilution method
Serratia marcescens [2] = assay: Antibacterial activity against ceftazidime-susceptible Serratia marcescens assessed as resistant isolates by CLSI M7-A7 broth microdilution method
Haemophilus influenzae [3] = assay: Antibacterial activity against beta lactamase-negative Haemophilus influenzae by CLSI M7-A7 broth microdilution method
Streptococcus pyogenes = assay: Antibacterial activity against erythromycin-nonsusceptible Streptococcus pyogenes by CLSI M7-A7 broth microdilution method
Citrobacter freundii [4] = assay: Antibacterial activity against ceftazidime-susceptible Citrobacter freundii assessed as susceptible isolates by CLSI M7-A7 broth microdilution method
Streptococcus pneumoniae [5] = assay: Antibacterial activity against penicillin-susceptible Streptococcus pneumoniae assessed as resistant isolates by CLSI M7-A7 broth microdilution method
Pasteurella multocida = assay: Antibacterial activity against Pasteurella multocida by CLSI M7-A7 broth microdilution method
Acinetobacter [6] = assay: Antibacterial activity against multidrug-resistant Acinetobacter by CLSI M7-A7 broth microdilution method
Citrobacter freundii [7] = assay: Antibacterial activity against ceftazidime-nonsusceptible Citrobacter freundii assessed as susceptible isolates by CLSI M7-A7 broth microdilution method
Klebsiella pneumoniae [8] = assay: Antibacterial activity against ceftazidime-nonsusceptible Klebsiella pneumoniae by CLSI M7-A7 broth microdilution method
Enterobacter cloacae [9] = assay: Antibacterial activity against ceftazidime-susceptible Enterobacter cloacae assessed as resistant isolates by CLSI M7-A7 broth microdilution method
Enterobacteriaceae [10] = assay: Antibacterial activity against ceftazidime-nonsusceptible Enterobacteriaceae by CLSI M7-A7 broth microdilution method
Enterococcus faecalis = assay: Antibacterial activity against vancomycin-resistant Enterococcus faecalis by CLSI M7-A7 broth microdilution method
Enterobacteriaceae [11] = assay: Antibacterial activity against ceftazidime-susceptible Enterobacteriaceae assessed as resistant isolates by CLSI M7-A7 broth microdilution method
Streptococcus agalactiae = assay: Antibacterial activity against erythromycin-nonsusceptible Streptococcus agalactiae by CLSI M7-A7 broth microdilution method
Haemophilus influenzae [12] = assay: Antibacterial activity against beta lactamase-positive Haemophilus influenzae assessed as susceptible isolates by CLSI M7-A7 broth microdilution method
Staphylococcus aureus [13] = assay: Antibacterial activity against methicillin-susceptible Staphylococcus aureus by CLSI M7-A7 broth microdilution method
Citrobacter freundii [14] = assay: Antibacterial activity against ceftazidime-susceptible Citrobacter freundii assessed as resistant isolates by CLSI M7-A7 broth microdilution method
Enterobacteriaceae [15] = assay: Antibacterial activity against ceftazidime-susceptible Enterobacteriaceae by CLSI M7-A7 broth microdilution method
Morganella morganii [16] = assay: Antibacterial activity against ceftazidime-susceptible Morganella morganii assessed as susceptible isolates by CLSI M7-A7 broth microdilution method
Enterobacter cloacae [17] = assay: Antibacterial activity against ceftazidime-nonsusceptible Enterobacter cloacae assessed as resistant isolates by CLSI M7-A7 broth microdilution method
Moraxella catarrhalis = assay: Antibacterial activity against beta lactamase-positive Moraxella catarrhalis assessed as susceptible isolates by CLSI M7-A7 broth microdilution method
Enterobacteriaceae [18] = assay: Antibacterial activity against ceftazidime-nonsusceptible Enterobacteriaceae assessed as susceptible isolates by CLSI M7-A7 broth microdilution method
Providencia sp. [19] = assay: Antibacterial activity against ceftazidime-susceptible Providencia sp. assessed as resistant isolates by CLSI M7-A7 broth microdilution method
Enterococcus faecium = assay: Antibacterial activity against vancomycin-resistant Enterococcus faecium by CLSI M7-A7 broth microdilution method
Klebsiella pneumoniae [20] = assay: Antibacterial activity against ceftazidime-nonsusceptible Klebsiella pneumoniae assessed as resistant isolates by CLSI M7-A7 broth microdilution method
Citrobacter freundii [21] = assay: Antibacterial activity against ceftazidime-nonsusceptible Citrobacter freundii assessed as resistant isolates by CLSI M7-A7 broth microdilution method
Proteus mirabilis [22] = assay: Antibacterial activity against ceftazidime-susceptible Proteus mirabilis assessed as resistant isolates by CLSI M7-A7 broth microdilution method
Acinetobacter [23] = assay: Antibacterial activity against multidrug-resistant Acinetobacter assessed as resistant isolates by CLSI M7-A7 broth microdilution method
Serratia marcescens [24] = assay: Antibacterial activity against ceftazidime-susceptible Serratia marcescens assessed as susceptible isolates by CLSI M7-A7 broth microdilution method
Morganella morganii [25] = assay: Antibacterial activity against ceftazidime-susceptible Morganella morganii by CLSI M7-A7 broth microdilution method
Streptococcus pneumoniae [26] = assay: Antibacterial activity against penicillin-resistant Streptococcus pneumoniae assessed as resistant isolates by CLSI M7-A7 broth microdilution method
Enterobacter cloacae [27] = assay: Antibacterial activity against ceftazidime-nonsusceptible Enterobacter cloacae assessed as susceptible isolates by CLSI M7-A7 broth microdilution method
Haemophilus influenzae [28] = assay: Antibacterial activity against beta lactamase-positive Haemophilus influenzae by CLSI M7-A7 broth microdilution method
Escherichia coli [29] = assay: Antibacterial activity against ceftazidime-nonsusceptible Escherichia coli assessed as resistant isolates by CLSI M7-A7 broth microdilution method
Streptococcus pneumoniae [30] = assay: Antibacterial activity against penicillin-susceptible Streptococcus pneumoniae assessed as susceptible isolates by CLSI M7-A7 broth microdilution method
Staphylococcus aureus [31] = assay: Antibacterial activity against methicillin-resistant Staphylococcus aureus assessed as susceptible isolates by CLSI M7-A7 broth microdilution method
Proteus mirabilis [32] = assay: Antibacterial activity against ceftazidime-susceptible Proteus mirabilis by CLSI M7-A7 broth microdilution method
Escherichia coli [33] = assay: Antibacterial activity against ceftazidime-nonsusceptible Escherichia coli by CLSI M7-A7 broth microdilution method
Streptococcus pneumoniae [34] = assay: Antibacterial activity against penicillin-resistant Streptococcus pneumoniae by CLSI M7-A7 broth microdilution method
Providencia sp. [35] = assay: Antibacterial activity against ceftazidime-susceptible Providencia sp. assessed as susceptible isolates by CLSI M7-A7 broth microdilution method
Citrobacter freundii [36] = assay: Antibacterial activity against ceftazidime-susceptible Citrobacter freundii by CLSI M7-A7 broth microdilution method
Enterobacter cloacae [37] = assay: Antibacterial activity against ceftazidime-nonsusceptible Enterobacter cloacae by CLSI M7-A7 broth microdilution method
Streptococcus viridans = assay: Antibacterial activity against penicillin-nonsusceptible Streptococcus viridans by CLSI M7-A7 broth microdilution method
Escherichia coli [38] = assay: Antibacterial activity against ceftazidime-susceptible Escherichia coli assessed as susceptible isolates by CLSI M7-A7 broth microdilution method

## C[C@H]1COc2c(N3CCN(C)CC3)c(F)cc3c(=O)c(C(=O)O)cn1c23.C[C@H]1COc2c(N3CCN(C)CC3)c(F)cc3c(=O)c(C(=O)O)cn1c23.O [LEVOFLOXACIN]
Staphylococcus aureus [1]
  MIC50: 8 µg/mL
  MIC90: > 16 µg/mL
Serratia marcescens [2]
  Activity: 1.7%
Haemophilus influenzae [3]
  MIC50: 0.015 µg/mL
  MIC90: 0.03 µg/mL
Streptococcus pyogenes
  MIC50: 0.5 µg/mL
  MIC90: 1 µg/mL
Citrobacter freundii [4]
  Activity: 98%
Streptococcus pneumoniae [5]
  Activity: 1.5%
Pasteurella multocida
  MIC50: ≤ 0.015 µg/mL
  MIC90: 0.03 µg/mL
Acinetobacter [6]
  MIC50: 16 µg/mL
Citrobacter freundii [7]
  Activity: 72.7%
Klebsiella pneumoniae [8]
  MIC50: 8 µg/mL
  MIC90: > 16 µg/mL
Enterobacter cloacae [9]
  Activity: 2%
Enterobacteriaceae [10]
  MIC50: 8 µg/mL
  MIC90: > 16 µg/mL
Enterococcus faecalis
  MIC50: > 16 µg/mL
Enterobacteriaceae [11]
  Activity: 9.4%
Streptococcus agalactiae
  MIC50: 1 µg/mL
  MIC90: 1 µg/mL
Haemophilus influenzae [12]
  Activity: 100%
Staphylococcus aureus [13]
  MIC50: 0.12 µg/mL
  MIC90: 16 µg/mL
Citrobacter freundii [14]
  Activity: 0%
Enterobacteriaceae [15]
  MIC50: 0.06 µg/mL
  MIC90: 4 µg/mL
Morganella morganii [16]
  Activity: 76.5%
Enterobacter cloacae [17]
  Activity: 25.7%
Moraxella catarrhalis
  Activity: 100%
Enterobacteriaceae [18]
  Activity: 41.8%
Providencia sp. [19]
  Activity: 25.9%
Enterococcus faecium
  MIC: > 16 µg/mL
  MIC50: > 16 µg/mL
  MIC90: > 16 µg/mL
Klebsiella pneumoniae [20]
  Activity: 54.5%
Citrobacter freundii [21]
  Activity: 24.2%
Proteus mirabilis [22]
  Activity: 20.7%
Acinetobacter [23]
  Activity: 87.5%
Serratia marcescens [24]
  Activity: 98.3%
Morganella morganii [25]
  MIC50: ≤ 0.03 µg/mL
  MIC90: 8 µg/mL
Streptococcus pneumoniae [26]
  Activity: 0.7%
Enterobacter cloacae [27]
  Activity: 62.9%
Haemophilus influenzae [28]
  MIC50: 0.015 µg/mL
  MIC90: 0.03 µg/mL
Escherichia coli [29]
  Activity: 85.7%
Streptococcus pneumoniae [30]
  Activity: 98.5%
Staphylococcus aureus [31]
  Activity: 25.6%
Proteus mirabilis [32]
  MIC50: 0.06 µg/mL
  MIC90: 16 µg/mL
Escherichia coli [33]
  MIC50: > 16 µg/mL
  MIC90: > 16 µg/mL
Streptococcus pneumoniae [34]
  MIC50: 0.5 µg/mL
  MIC90: 1 µg/mL
Providencia sp. [35]
  Activity: 66.7%
Citrobacter freundii [36]
  MIC: ≤ 0.03 µg/mL
  MIC50: ≤ 0.03 µg/mL
  MIC90: 1 µg/mL
Enterobacter cloacae [37]
  MIC50: 0.12 µg/mL
  MIC90: 1 µg/mL
Streptococcus viridans
  MIC50: 1 µg/mL
  MIC90: 2 µg/mL
Escherichia coli [38]
  Activity: 86.4%

## CO/N=C(\C(=O)N[C@@H]1C(=O)N2C(C(=O)O)=C(CSc3nc(=O)c(O)nn3C)CS[C@H]12)c1csc(N)n1 [CEFTRIAXONE]
Staphylococcus aureus [1]
  MIC50: 16 µg/mL (≈ 28.9 µM)
  MIC90: > 32 µg/mL
Serratia marcescens [2]
  Activity: 0%
Haemophilus influenzae [3]
  MIC: ≤ 0.06 µg/mL
  MIC50: ≤ 0.06 µg/mL
  MIC90: ≤ 0.06 µg/mL
Streptococcus pyogenes
  MIC50: 0.03 µg/mL (≈ 0.0541 µM)
  MIC90: 0.12 µg/mL (≈ 0.216 µM)
Citrobacter freundii [4]
  Activity: 100%
Streptococcus pneumoniae [5]
  Activity: 0%
Pasteurella multocida
  MIC: ≤ 0.015 µg/mL
  MIC50: ≤ 0.015 µg/mL
  MIC90: ≤ 0.015 µg/mL
Acinetobacter [6]
  MIC: > 16 µg/mL
  MIC50: > 16 µg/mL
Citrobacter freundii [7]
  Activity: 6.1%
Klebsiella pneumoniae [8]
  MIC50: > 16 µg/mL
  MIC90: > 16 µg/mL
Enterobacter cloacae [9]
  Activity: 0%
Enterobacteriaceae [10]
  MIC50: > 16 µg/mL
  MIC90: > 16 µg/mL
Enterococcus faecalis
  MIC: > 1 µg/mL
Enterobacteriaceae [11]
  Activity: 0%
Streptococcus agalactiae
  MIC50: 0.06 µg/mL (≈ 0.108 µM)
  MIC90: 0.12 µg/mL (≈ 0.216 µM)
Haemophilus influenzae [12]
  Activity: 100%
Staphylococcus aureus [13]
  MIC50: 2 µg/mL (≈ 3.61 µM)
  MIC90: 4 µg/mL (≈ 7.21 µM)
Citrobacter freundii [14]
  Activity: 0%
Enterobacteriaceae [15]
  MIC50: ≤ 0.06 µg/mL
  MIC90: 0.25 µg/mL (≈ 0.451 µM)
Morganella morganii [16]
  Activity: 100%
Enterobacter cloacae [17]
  Activity: 0%
Moraxella catarrhalis
  Activity: 100%
Enterobacteriaceae [18]
  Activity: 13.2%
Providencia sp. [19]
  Activity: 0%
Enterococcus faecium
  MIC: > 32 µg/mL
  MIC50: > 32 µg/mL
  MIC90: > 32 µg/mL
Klebsiella pneumoniae [20]
  Activity: 0%
Citrobacter freundii [21]
  Activity: 0%
Proteus mirabilis [22]
  Activity: 0%
Acinetobacter [23]
  Activity: 0%
Serratia marcescens [24]
  Activity: 93.2%
Morganella morganii [25]
  MIC: ≤ 0.06 µg/mL
  MIC50: ≤ 0.06 µg/mL
  MIC90: 1 µg/mL (≈ 1.8 µM)
Streptococcus pneumoniae [26]
  Activity: 6.8%
Enterobacter cloacae [27]
  Activity: 8.6%
Haemophilus influenzae [28]
  MIC: ≤ 0.06 µg/mL
  MIC50: ≤ 0.06 µg/mL
  MIC90: ≤ 0.06 µg/mL
Escherichia coli [29]
  Activity: 0%
Streptococcus pneumoniae [30]
  Activity: 100%
Staphylococcus aureus [31]
  Activity: 14.2%
Proteus mirabilis [32]
  MIC50: ≤ 0.06 µg/mL
  MIC90: 0.12 µg/mL (≈ 0.216 µM)
Escherichia coli [33]
  MIC50: > 16 µg/mL
  MIC90: > 16 µg/mL
Streptococcus pneumoniae [34]
  MIC50: 1 µg/mL (≈ 1.8 µM)
  MIC90: 2 µg/mL (≈ 3.61 µM)
Providencia sp. [35]
  Activity: 100%
Citrobacter freundii [36]
  MIC50: 0.12 µg/mL (≈ 0.216 µM)
  MIC90: 0.5 µg/mL (≈ 0.902 µM)
Enterobacter cloacae [37]
  MIC50: > 16 µg/mL
  MIC90: > 16 µg/mL
Streptococcus viridans
  MIC50: 2 µg/mL (≈ 3.61 µM)
  MIC90: 8 µg/mL (≈ 14.4 µM)
Escherichia coli [38]
  Activity: 97.4%
